# Literature values as cited in patent US4971799A, “Percutaneous-administration-type pharmaceutical preparation of nitroglycerin” (Sekisui Kagaku Kogyo Kabushiki Kaisha, priority 1987, dated 1990).
# Details: intravenous injection
smiles,measurement,setting,value
O=[N+]([O-])OCC(CO[N+](=O)[O-])O[N+](=O)[O-] [nitroglycerin],Duration of effects,,effects are lost after a very short period of time
same,Side effects,high blood level for a short period,"headache, dizziness, orthostatic hypotension"
